From US9884126B2, “Anti-wall teichoic antibodies and conjugates” (priority 2013, dated 2018)
Converted amounts (≈) assume the structure as drawn.

Assays:
[1] = test system: MRSA (NRS384 strain of USA300); test: MIC determination / killing of intracellular bacteria in mouse peritoneal macrophages; format: cell-based, Staphylococcus aureus
MRSA (USA300) = test: Intravenous infection model in CB17.SCID mice reconstituted with human IgG (SCID:huIgG); format: in vivo
Experimental: To confirm that the AAC would be effective in the presence of competing human antibodies in vivo, the in vivo infection model was modified to generate mice that express normal levels of human IgG in the serum. […] Four days after infection the bacterial load in the kidneys (FIG. 10C) was assessed.
CB17.SCID mice were reconstituted with human IgG using a dosing regimen optimized to yield constant levels of at least 10 mg/mL of human IgG in serum.
Efficacy of the AAC was compared with that of treatment with vancomycin, the current standard of care treatment for MRSA infections. […]
CB17.SCID mice were reconstituted with human IgG using a dosing regimen optimized to yield constant levels of at least 10 mg/mL of human IgG in serum and infected with 2×10^7 CFU of USA300 by intravenous injection. […] The mice were sacrificed on day 4 post infection, and the total number of surviving bacteria in kidneys (2 kidneys pooled, FIG. 21) and heart (FIG. 22) was determined by plating.
7 week old female mice were used for all in vivo experiments and infections were carried out by intravenous injection into the tail vein. […] The total number of bacteria recovered per mouse (2 kidneys) was determined by plating serial dilutions of the tissue homogenate in PBS 0.05% Tween on Tryptic Soy Agar with 5% defibrinated sheep blood.

MRSA [2] = test: Transfer of infection from peritoneal cells to MG63 osteoblasts in the presence of vancomycin; format: cell-based, Staphylococcus aureus; conditions: 5 μg/mL of vancomycin
Experimental: 6-8 week old female A/J mice (JAX™ Mice, Jackson Laboratories) were infected with 1×10^8 CFU of the NRS384 strain of USA300 by peritoneal injection. The peritoneal wash was harvested 1 day post infection, and the infected peritoneal cells were treated with 50 μg/mL of lysostaphin diluted in Hepes Buffer supplemented with 0.1% BSA (HB buffer) for 30 minutes at 37° C. Peritoneal cells were then washed 2× in ice cold HB buffer. The peritoneal cells were diluted to 1×10^6 cells/mL in RPMI 1640 tissue culture media supplemented with 10 mM Hepes and 10% Fetal Calf Serum, and 5 μg/mL vancomycin. Free MRSA from the primary infection was stored overnight at 4° C. in Phosphate Buffered Saline Solution as a control for extracellular bacteria that were not subject to neutrophil killing.
MG63 osteoblast cell line was obtained from ATCC (CRL-1427) and maintained in RPMI 1640 tissue culture media supplemented with 10 mM Hepes and 10% Fetal Calf Serum (RPMI-10). […] The actual titer for all infections was determined by plating serial dilutions of the bacteria on Tryptic Soy Agar with 5% defibrinated sheep blood.
To generate a pool of intracellular S. aureus, A/J mice were infected with MRSA and infected peritoneal cells were taken 1 day post infection. […] The total number of surviving intracellular bacteria in each well was determined by plating cell lysates on agar plates. […]

[3] = test system: MRSA (NRS384 strain of USA300); test: MIC determination for extracellular bacteria; format: cell-based; conditions: Staphylococcus aureus, read-out: Extracellular MRSA MIC
Experimental: Dilutions of the antibiotic were made in quadruplicate in 96 well culture dishes. MRSA (NRS384 strain of USA300) was taken from an exponentially growing culture and diluted to 1×10^4 CFU/mL. Bacteria was cultured in the presence of antibiotic for 18-24 hours with shaking at 37° C. and bacterial growth was determined by reading the Optical Density (OD) at […]. The MIC was determined to be the dose of antibiotic that inhibited bacterial growth by >90%.

USA300 = test: Intravenous infection model, pre-treatment in Balb/c mice; format: in vivo; conditions: antibodies 50 mg/Kg IV 30 minutes prior to infection; vancomycin 110 mg/Kg twice daily; day 4
Experimental: Balb/c mice were given a single dose of vehicle control (PBS) or 50 mg/Kg of antibodies by intravenous injection 30 minutes prior to infection with 2×10^7 CFU of USA300. […] Control mice were given twice daily treatments with 110 mg/Kg of vancomycin by intraperitoneal injection (Vanco). All mice were sacrificed on day 4 post-infection, and the total number of surviving bacteria in kidneys (2 kidneys pooled) was determined by plating.
7 week old female mice were used for all in vivo experiments and infections were carried out by intravenous injection into the tail vein. A/J mice (Jackson Lab) were infected with a dose of 2×10^6 CFU. Balb/c mice (Charles River Laboratories, Hollister, Calif.) were infected with a dose of 2×10^7 CFU. For studies examining the role of competing human IgG (SCID IVIG model), CB17.SCID mice (Charles River Laboratories, Hollister, Calif.) were reconstituted with GammaGard S/D IGIV Immune Globulin (ASD Healthcare, Brooks KY) using a dosing regimen optimized to achieve constant serum levels of >10 mg/mL of human IgG. […] The total number of bacteria recovered per mouse (2 kidneys) was determined by plating serial dilutions of the tissue homogenate in PBS 0.05% Tween on Tryptic Soy Agar with 5% defibrinated sheep blood.

MRSA [4] = conditions: TSB; vancomycin 2 and 20 μg/mL, rifampin 0.02 and 0.2 μg/mL

Structure (SMILES): CN[C@H](CC(C)C)C(=O)N[C@H]1C(=O)N[C@@H](CC(N)=O)C(=O)N[C@H]2C(=O)N[C@H]3C(=O)N[C@H](C(=O)N[C@H](C(=O)O)c4cc(O)cc(O)c4-c4cc3ccc4O)[C@H](O)c3ccc(c(Cl)c3)Oc3cc2cc(c3O[C@@H]2O[C@H](CO)[C@@H](O)[C@H](O)[C@H]2O[C@H]2C[C@](C)(N)[C@H](O)[C@H](C)O2)Oc2ccc(cc2Cl)[C@H]1O [Vancomycin]
- MIC ([1]; Staphylococcus aureus, 24 h, MRSA inside mouse peritoneal macrophages, […]): > 100 µg/mL
- killing of intracellular MRSA sequestered inside macrophages ([1]; doses including clinically achieveable serum levels): failed to kill
- efficacy in SCID:huIgG mice (kidney bacteria day 4) (MRSA (USA300); AAC single dose 50 mg/Kg day 1, vancomycin 100 mg/Kg twice daily): failed to clear the infection
- reduction of bacterial loads (MRSA (USA300); twice-daily 100 mg/Kg, initiated more than 1 day post infection): about 50 fold
- intracellular bacteria recovered from MG63 wells 1 day after infection (MRSA [2]; infected with 3×10^4 intracellular bacteria): 8,750 intracellular bacteria
- intracellular bacteria recovered from MG63 wells 1 day post infection (MRSA [2]; infected with a similar dose of free MRSA): 375 intracellular bacteria
- MIC [3]: 1 µg/mL (≈ 0.69 µM)
- effect of pre-treatment on bacterial loads in kidneys (USA300): cleared the infection in all of the mice tested
- bacteria remaining viable during the first two hours of treatment (MRSA [4]): 90%
- loss in viable bacteria by 5 hours (MRSA [4]): 100 fold
